Measurements taken from PubChem BioAssay (NCI).
“And” between values parts separate entries of the source, which are not always exact repeats. Equal values may be shown once.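 The compound was tested at five concentrations on cells cultured in 96-well plates, with a 48-hour exposure period. Here, GI50 denotes the concentration required for 50% inhibition of growth. TGI marks complete inhibition of growth.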 Where a SMILES comes first, the peptide text is derived from it. [ ]: non-standard residue; d: D form. The star is where a group is joined. Decanoyl = CCCCCCCCCC(=O)*; Leu(ol) = CC(C)C[C@H](N)CO; Iva = CC[C@](C)(N)C(=O)O; Aib = CC(C)(N)C(=O)O

Test system: MDA-MB-468 breast
Test: inhibition of tumour cell growth, NCI panel, 48 h

Compound: CCC(=O)Nc1ccc(C)c(-c2ccc(C(=O)NCC3CC3)cc2)c1
- GI50: 14.9 µM
- TGI: > 25 µM

Compound: O=C(N/N=C/c1ccc(O)cc1O)c1cccc(Nc2ccnc(C(F)(F)F)c2)c1
- GI50: 0.626 µM
- TGI: > 58.3 µM

Compound: CCOC(=O)C#Cc1c(C(=O)OCC)nnn1Cc1ccc([N+](=O)[O-])cc1
- GI50: 1.96 µM
- TGI: 4.4 µM

Compound: O=C1/C(=C/c2ccc(Cl)cc2)CCC/C1=C\c1ccc(Cl)cc1
- GI50: 3.08 µM
- TGI: 9.21 µM

Compound: COc1cc(-c2csc(NC(=O)Nc3ccc(C(F)(F)F)cc3)n2)cc(OC)c1OC
- GI50: 1.72 µM
- TGI: 5.71 µM

Compound: COc1cc2nccc(Oc3ccc(NC(=O)Nc4cc(C)on4)c(Cl)c3)c2cc1OC
- GI50: 2.34 µM and 2.93 µM
- TGI: 8.09 µM and > 10 µM

Compound: CC1(N)CCN(c2cnc(-c3cccc(Cl)c3Cl)c(N)n2)CC1
- GI50: 2.58 µM
- TGI: 17.2 µM

Compound: CCOC(=O)c1ccc(NC2=C(Cl)C(=O)c3nc(C)ccc3C2=O)cc1
- GI50: 1.66 µM
- TGI: 3.54 µM

Compound: CCc1ccc(C(=Nc2ccc(N(C)C(=O)CN3CCN(C)CC3)cc2)c2c(O)[nH]c3ccc(C(=O)OC)cc23)cc1
- GI50: 0.73 µM
- TGI: 2.35 µM

Compound: CCn1c(-c2nonc2N)nc2c(C#CC(C)(C)O)ncc(OC[C@H]3CCCNC3)c21
- GI50: 0.0872 µM
- TGI: 18.9 µM

Compound: O=[N+]([O-])c1cc(C(F)(F)F)ccc1Sc1ccc(C(F)(F)F)cc1[N+](=O)[O-]
- GI50: 3.67 µM
- TGI: > 100 µM

Compound: N#C/C(=C\c1ccc(Br)cc1)n1nnc2cc(Cl)c(Cl)cc21
- GI50: 2.15 µM
- TGI: 5.13 µM

Compound: NS(=O)(=O)NCCNc1nonc1C(=Nc1ccc(F)c(Br)c1)NO
- GI50: 23.5 µM
- TGI: 76.5 µM

Compound: C=C1C(=O)O[C@H]2[C@H]1CC/C(COC(=O)C(C)c1ccc(CC(C)C)cc1)=C\CC[C@@]1(C)O[C@@H]21 (stereo partly specified)
- GI50: 1.76 µM
- TGI: 3.79 µM

Compound: Cc1cc2c(C(N)=O)c(N)n(-c3c(C)ccc(O)c3C)c2nc1C
- GI50: 8.69 µM
- TGI: 29.7 µM

Compound: CCCCCCCCCC(=O)N[C@@](C)(CC)C(=O)N1CCC[C@H]1C(=O)N[C@@H](CC(C)C)C(=O)N[C@@](C)(CC)C(=O)N[C@@H](CCC(N)=O)C(=O)N[C@H](CCC(N)=O)C(=O)NC(C)(C)C(=O)NC(C)(C)C(=O)N[C@@H](CCC(N)=O)C(=O)N[C@H](CC(C)C)C(=O)N[C@H](CO)CC(C)C (Decanoyl-[Iva]PL[Iva]Q[dQ][Aib][Aib]Q[dL][Leu(ol)])
- GI50: 1.77 µM
- TGI: 3.49 µM

Compound: CC(CN(C)C)Oc1ccccc1NC1=C(Cl)C(=O)C(Nc2ccccc2OC(C)CN(C)C)=C(Cl)C1=O (stereo unspecified)
- GI50: 0.163 µM
- TGI: 0.328 µM

Compound: CN1CCN(c2ccc(NC(=O)c3cncnc3Nc3ccc(OCc4ccccn4)c(Cl)c3)cc2)CC1
- GI50: 3.88 µM
- TGI: 9.39 µM

Compound: CCCN(CCC)c1ccc(/C=N/NC(=O)c2cccnc2)c(OC)c1
- GI50: 6.22 µM
- TGI: 58.9 µM

Compound: CC1=C(C(=O)Nc2cc(Cl)c3[nH]ncc3c2)C(c2ccc(C(F)(F)F)cc2)CC(=O)N1 (stereo unspecified)
- GI50: 8.02 µM
- TGI: > 25 µM

Compound: CC([C@H]1CCC2C3CCC4C[C@@H](N)CC[C@]4(C)C3CC[C@@]21C)N(C)C (stereo partly specified)
- GI50: 1.57 µM
- TGI: 4.83 µM

Compound: Oc1c(Cl)cc(Cl)cc1C(c1cc(Cl)cc(Cl)c1O)C(Cl)(Cl)Cl
- GI50: 2.17 µM
- TGI: 7.63 µM

Compound: C/C(=C\c1cc(C(F)(F)F)n(-c2ccc(N)cc2)n1)[C@@H]1C[C@@H]2O[C@]2(C)CCC[C@H](C)[C@H](O)[C@@H](C)C(=O)C(C)(C)[C@@H](O)CC(=O)O1
- GI50: 0.0336 µM
- TGI: 0.231 µM

Compound: Cc1ccc(NC(=O)CSc2nnc3n(Cc4ccccc4)c(=O)c4c(C)c(C(N)=O)sc4n23)cc1
- GI50: 18.6 µM
- TGI: > 100 µM

Compound: Cc1ccc(C(=O)/C(=C\c2ccc([N+](=O)[O-])cc2)S(=O)Cc2ccc(Cl)cc2)cc1 (stereo unspecified)
- GI50: 1.74 µM
- TGI: 3.44 µM

Compound: Cc1cc(N2CCOCC2)nc(N(CCCNc2ccnc3cc(Cl)ccc23)Cc2ccco2)n1
- GI50: 2.21 µM
- TGI: 7.33 µM

Compound: CC1(C)NCCC[C@]2(C)[C@H]3CC[C@@H]4[C@H]5[C@H](C(=O)/C=C/c6ccccn6)CC[C@]5(CO)CC[C@@]4(C)[C@]3(C)CC[C@@H]12
- GI50: 2.08 µM
- TGI: 4.77 µM

Compound: Nc1ccc(-c2cccs2)cc1NC(=O)c1ccc(CCCC(=O)Nc2ccc(C3CC3N)cc2)cc1 (stereo unspecified)
- GI50: 1.9 µM
- TGI: 4.37 µM

Compound: Cc1cc(-c2ccccn2)cc(C)c1/C=C/c1cncc(-c2nn[nH]n2)c1
- GI50: > 25 µM
- TGI: > 25 µM

Compound: COc1ccc2c(c1)C(=O)/C(=C/c1ccc([N+](=O)[O-])o1)O2
- GI50: 0.818 µM
- TGI: 2.56 µM

Compound: Clc1ccccc1CNc1c2ccccc2nc2ccccc12
- GI50: 1.12 µM
- TGI: 3.04 µM

Compound: Cc1ccc(NS(=O)(=O)c2cccc(C#N)c2)c2[nH]cc(C#N)c12
- GI50: 4.44 µM
- TGI: 58.2 µM

Compound: OCCNc1nc(Nc2ccc(Cl)c(Cl)c2)nc2ccccc12
- GI50: 1.83 µM
- TGI: 5.3 µM

Compound: C[N+](C)(C)CC(=O)N/N=C(\C(=O)NC1=C(Cl)C(=O)c2ccccc2C1=O)C(C#N)c1nc(-c2ccc([N+](=O)[O-])cc2)cs1 (stereo unspecified)
- GI50: 3.89 µM
- TGI: 16 µM

Compound: CC(=[N-])N1CCC[C@@H](Nc2c3ccccc3nc3ccccc23)C1.[Cl][Pt].[NH-]CCC[NH-]
- GI50: 0.128 µM
- TGI: 0.901 µM

Compound: C=C(CO)[C@@H]1CC[C@]2(COC3CCCCO3)CC[C@]3(C)[C@H](CC[C@@H]4[C@@]5(C)C=C(C=O)C(=O)C(C)(C)[C@@H]5CC[C@]43C)[C@@H]12 (stereo partly specified)
- GI50: 0.244 µM
- TGI: 0.665 µM

Compound: Oc1ccc(C2c3ccccc3Oc3ccccc32)c2cccnc12
- GI50: 0.644 µM
- TGI: 4.53 µM

Compound: CC(=O)O[C@H]1[C@@H]2OC(=O)C(CSc3ccccc3)[C@@H]2C[C@H]2O[C@]2(C)CC/C=C(\C)CCC[C@@H]1C (stereo partly specified)
- GI50: 1.46 µM
- TGI: 3.62 µM

Compound: O=C(/C=C/C12c3ccccc3C(c3ccccc31)C1C(=O)NC(=O)C12)c1ccc(F)cc1 (stereo unspecified)
- GI50: 1.99 µM
- TGI: 4.1 µM

Compound: COC(=O)c1ccc(NC2=C(Cl)C(=O)C(C)=C(C)C2=O)cc1
- GI50: 1.49 µM
- TGI: 3.1 µM

Compound: C/C(O)=C(\C#N)C(=O)Nc1ccc(C(F)(F)F)cc1
- GI50: 37.2 µM
- TGI: > 100 µM

Compound: O=C(O)c1c(=O)cccc2ssc12
- GI50: 2.14 µM
- TGI: 4.38 µM

Compound: O=C1C=CC(=O)N1c1cccc(N2C(=O)C=CC2=O)c1
- GI50: 1.88 µM
- TGI: 3.99 µM
